In ChEMBL document CHEMBL3046643, “Effect of chronic treatment with new benzylidene-thiazolidine-2,4-dione (LPSF/GQ-06) with potential hypoglycemic on rat Leydig cell steroidogenesis” (Med Chem Res, 2013):
The source made the active and inactive calls. The calls are words filed in the database; no cut-off is given here.

Legend:
[1] = tested on: Rattus norvegicus; assay: Effect on P450scc expression in Rattus norvegicus Wistar albino (rat) Leydig cells at 5 mg/kg, po after 15 days by immunocytochemistry analysis relative to untreated control; type: functional, organism-based; parameters: dose 5 mg/kg
[2] = tested on: Rattus norvegicus; assay: Effect on StAR expression in Rattus norvegicus Wistar albino (rat) Leydig cells at 5 mg/kg, po after 15 days by immunocytochemistry analysis relative to untreated control; type: functional, organism-based; parameters: dose 5 mg/kg
[3] = tested on: Rattus norvegicus; assay: Toxicity in Rattus norvegicus Wistar albino (rat) Leydig cells assessed as morphological changes at 5 mg/kg, po after 15 days by electron transmission microscopic analysis relative to untreated control; type: organism-based; parameters: dose 5 mg/kg, route oral; details: in vivo, 360 h
[4] = tested on: Rattus norvegicus; assay: Toxicity in Rattus norvegicus Wistar albino (rat) Leydig cells assessed as morphological changes at 5 mg/kg, po after 15 days by hematoxylin-eosin staining-based light microscopic analysis relative to untreated control; type: organism-based; parameters: dose 5 mg/kg, route oral; details: in vivo, 360 h
[5] = tested on: Rattus norvegicus; assay: Induction of steroidogenesis in Rattus norvegicus Wistar albino (rat) Leydig cells assessed as increase in pregnenolone-induced testosterone level at 5 mg/kg, po after 15 days by radioimmunoassay (reference value: 34 +/- 5.49 no unit); type: functional
[6] = tested on: Rattus norvegicus; assay: Induction of steroidogenesis in Rattus norvegicus Wistar albino (rat) Leydig cells assessed as increase in 22(R)-OH-C-induced testosterone level at 5 mg/kg, po after 15 days by radioimmunoassay (reference value: 83.5 +/- 3.36 no unit); type: functional
[7] = tested on: Rattus norvegicus; assay: Induction of steroidogenesis in Rattus norvegicus Wistar albino (rat) Leydig cells assessed as increase in dbcAMP-induced testosterone level at 5 mg/kg, po after 15 days by radioimmunoassay (reference value: 69.83 +/- 1.85 no unit); type: functional
[8] = tested on: Rattus norvegicus; assay: Induction of steroidogenesis in Rattus norvegicus Wistar albino (rat) Leydig cells assessed as increase in human chorionic gonadotropin-induced testosterone level at 5 mg/kg, po after 15 days by radioimmunoassay (reference value: 92.75 +/- 4.38 no unit); type: functional
[9] = tested on: Rattus norvegicus; assay: Induction of steroidogenesis in Rattus norvegicus Wistar albino (rat) assessed as increase in total plasma testosterone level at 5 mg/kg, po after 15 days (reference value: 2.01 +/- 1.21 ng/mL); type: functional
[10] = tested on: Rattus norvegicus; assay: Toxicity in Rattus norvegicus Wistar albino (rat) assessed as change in relative dry weight of seminal vesicle at 5 mg/kg, po after 15 days; type: organism-based; parameters: dose 5 mg/kg, route oral; details: in vivo, 360 h
[11] = tested on: Rattus norvegicus; assay: Toxicity in Rattus norvegicus Wistar albino (rat) assessed as change in relative weight of testis at 5 mg/kg, po after 15 days; type: organism-based; parameters: dose 5 mg/kg, route oral; details: in vivo, 360 h
[12] = tested on: Rattus norvegicus; assay: Toxicity in Rattus norvegicus Wistar albino (rat) assessed as change in body weight at 5 mg/kg, po after 15 days; type: organism-based; parameters: dose 5 mg/kg, route oral; details: in vivo, 360 h

COc1cccc(OC)c1/C=C1\SC(=O)N(Cc2ccc(C)cc2)C1=O
Activity [1]: inactive
Activity [2]: inactive
Activity [3]: Non-toxic
Activity [4]: Non-toxic
testosterone level [5]: 56.66
testosterone level [6]: 118.3
testosterone level [7]: 154.16
testosterone level [8]: 164.1
Activity [9]: 7.7 ng/mL
Activity [10]: Non-toxic
Activity [11]: Non-toxic
Activity [12]: Non-toxic
